# Experimental data from patent publication US7014858B2, “Use methods of treating acne and telangiectasia” (CollaGenex Pharmaceuticals, Inc., priority 2001, dated 2006).
# Where a name gives a salt, the structure may show the parent alone.
# Key:
# [1] = cited from earlier work
# [2] = system: moderate facial acne; test: Clinical study of doxycycline hyclate 20 mg tablets twice daily in moderate acne: lesion counts; assay type: in vivo, human; details: 20 mg tablets twice a day
# Procedure: Effects of Doxycycline Hyclate 20 mg (Dermastat) Tablets Administered Twice Daily for the Treatment of Moderate Acne
# • Multi-center, randomized double-blind, placebo-controlled; • Sixty patients enrolled (30 doxycycline and 30 placebo); • Six month duration of the study. • Patients received medication twice daily, approximately 12 hours apart (placebo and drug are identical in appearance.) Inclusion Criteria: • Healthy post-pubescent males and females (age ≧18) with moderate facial acne: • Comedones 6 to 200; • Inflammatory lesions 10 to 75 (papules and pustules, less than or equal to 5 nodules); • Females tested negative for pregnancy and were non-lactating; • Females maintained appropriate birth control; • Patients signed an Informed Consent Form; • No Accutane treatment for 6 months prior to baseline. Exclusion Criteria: • Use of hormonal contraception 6 months prior to baseline or during study; • Use of topical acne treatments within 6 weeks of baseline or during study; • Use of systemic antibiotics within 6 weeks of baseline or during study; • Use of investigational drugs within 90 days of baseline; • Use of any acne treatments during study. […]
# [3] = system: acne; details: sub-antibiotic doses; cited from earlier work
# [4] = Plasma antibiotic threshold levels based on steady-state pharmacokinetics
# [5] = system: neutrophil chemotaxis induced by bacterial chemotactic factors; details: oral, total daily dose 1000 mg; cited from earlier work
smiles,measurement,setting,value
CN(C)[C@@H]1C(O)=C(C(N)=O)C(=O)[C@@]2(O)C(O)=C3C(=O)c4c(O)cccc4[C@@](C)(O)[C@H]3C[C@@H]12 [tetracycline HCl],peak plasma concentration,[1]; 250 mg every six hours over a twenty-four hour period,approximately 3 μg/ml
same,serum concentration level,[1]; 500 mg every six hours over a twenty-four hour period,4 to 5 µg/mL
CN(C)c1ccc(O)c2c1C[C@H]1C[C@H]3[C@H](N(C)C)C(O)=C(C(N)=O)C(=O)[C@@]3(O)C(O)=C1C2=O [minocycline HCl],minocycline serum levels (range),"[1]; single dose of two 100 mg tablets, adult humans, over a period of an hour",0.74 to 4.45 µg/mL
same,minocycline serum level (average),"[1]; single dose of two 100 mg tablets, adult humans",2.24 µg/mL
CCO.C[C@H]1c2cccc(O)c2C(O)=C2C(=O)[C@]3(O)C(O)=C(C(N)=O)C(=O)[C@@H](N(C)C)[C@@H]3[C@@H](O)[C@@H]21.C[C@H]1c2cccc(O)c2C(O)=C2C(=O)[C@]3(O)C(O)=C(C(N)=O)C(=O)[C@@H](N(C)C)[C@@H]3[C@@H](O)[C@@H]21.Cl.Cl.O [doxycycline hyclate],reduction in the number of comedones (in words),[2],significant reduction
CN(C)[C@@H]1C(O)=C(C(N)=O)C(=O)[C@@]2(O)C(O)=C3C(=O)c4c(O)cccc4[C@@](C)(O)[C@H]3C[C@@H]12 [tetracycline],clinical effect on acne,[3],no clinical effect
same,plasma antibiotic threshold level,[4],0.5 µg/mL
same,neutrophil chemotaxis,[5],inhibition
